Assay [1] has as its target T1, Abl Kinase (Homo sapiens, UniProt P00519).
T1 construct: gene ABL1
Also noted: Cerep Bioprint off-target panel, enzyme or kinase inhibition. Particulars: inhibitor. How it is done: (§1) To discover a potent and selective BDK inhibitor, a subset of the Pfizer compound collection was screened. […] Off target activity was assessed in both CEREP and kinase panels (Supplementary Tables 2, 3).

The target of assay [2] is T2, Acetylcholinesterase (Homo sapiens, UniProt P22303).
T2 construct: gene ACHE
Also noted: Cerep Bioprint off-target panel, enzyme or kinase inhibition. Conditions: inhibitor. The protocol:
as §1

The target in assay [3] is T3, Angiotensin Coverting Enzyme (Homo sapiens, UniProt P12821).
T3 construct: gene ACE
Also noted: Cerep Bioprint off-target panel, enzyme or kinase inhibition. Particulars: inhibitor. How it is done: as §1

Assay [4] deals with T4, Aurora A Kinase (Homo sapiens, UniProt O14965).
T4 construct: gene AURKA
Also noted: Cerep Bioprint off-target panel, enzyme or kinase inhibition. Conditions: inhibitor. The protocol:
as §1

The target of assay [5] is T5, Cyclooxygenase 2 (Homo sapiens, UniProt P35354).
T5 construct: gene PTGS2
Also noted: Cerep Bioprint off-target panel, enzyme or kinase inhibition. Particulars: inhibitor. How it is done: as §1

The target of assay [6] is T6, EGFR Kinase (Homo sapiens, UniProt P00533).
T6 construct: kinase
Also noted: Cerep Bioprint off-target panel, enzyme or kinase inhibition. Particulars: inhibitor. How it is done: as §1

For assay [7], the target named is Kdr Kinase (VEGFR2) (Homo sapiens, UniProt P35968). Also noted: Cerep Bioprint off-target panel, enzyme or kinase inhibition. Particulars: inhibitor. How it is done:
as §1

Assay [8] concerns the target LCK (Homo sapiens, UniProt P06239). Also noted: Cerep Bioprint off-target panel, enzyme or kinase inhibition. Conditions: inhibitor. How it is done:
as §1

Assay [9] concerns the target T7, Monoamine Oxidase A (Homo sapiens, UniProt P21397).
T7 construct: gene MAOA
Also noted: Cerep Bioprint off-target panel, enzyme or kinase inhibition. Particulars: inhibitor. The protocol: as §1

Assay [10] has as its target T8, P38alpha MAP Kinase (Homo sapiens, UniProt Q16539).
T8 construct: gene MAPK14
Also noted: Cerep Bioprint off-target panel, enzyme or kinase inhibition. Conditions: inhibitor. How it is done: as §1

For assay [11], the target named is T9, Phosphodiesterase 3B (Homo sapiens, UniProt Q13370).
T9 construct: gene PDE3B
Also noted: Cerep Bioprint off-target panel, enzyme or kinase inhibition. Conditions: inhibitor. The protocol: as §1

Assay [12] deals with T10, Phosphodiesterase 4D2 (Homo sapiens, UniProt Q08499).
T10 construct: gene PDE4D; isoform 4D2
Also noted: Cerep Bioprint off-target panel, enzyme or kinase inhibition. Conditions: inhibitor. How it is done: as §1

For assay [13], the target named is SRC (Homo sapiens, UniProt P12931). Also noted: Cerep Bioprint off-target panel, enzyme or kinase inhibition. Conditions: inhibitor. How it is done:
as §1

For assay [14], the target named is T11, Adenosine A1 Receptor (Homo sapiens, UniProt P30542).
T11 construct: gene ADORA1
Also noted: Cerep Bioprint off-target panel, functional receptor agonism or antagonism. Particulars: agonist. How it is done: as §1

The target of assay [15] is T12, Adrenergic Beta 2 Adrenoceptor (Homo sapiens, UniProt P07550).
T12 construct: gene ADRB2
Also noted: Cerep Bioprint off-target panel, functional receptor agonism or antagonism. How it is done:
as §1

The target in assay [16] is T13, Corticotrophin Releasing Factor 1 (CRF1) Receptor (Homo sapiens, UniProt P34998).
T13 construct: gene CRHR1
T13 sequence (P34998 1-415): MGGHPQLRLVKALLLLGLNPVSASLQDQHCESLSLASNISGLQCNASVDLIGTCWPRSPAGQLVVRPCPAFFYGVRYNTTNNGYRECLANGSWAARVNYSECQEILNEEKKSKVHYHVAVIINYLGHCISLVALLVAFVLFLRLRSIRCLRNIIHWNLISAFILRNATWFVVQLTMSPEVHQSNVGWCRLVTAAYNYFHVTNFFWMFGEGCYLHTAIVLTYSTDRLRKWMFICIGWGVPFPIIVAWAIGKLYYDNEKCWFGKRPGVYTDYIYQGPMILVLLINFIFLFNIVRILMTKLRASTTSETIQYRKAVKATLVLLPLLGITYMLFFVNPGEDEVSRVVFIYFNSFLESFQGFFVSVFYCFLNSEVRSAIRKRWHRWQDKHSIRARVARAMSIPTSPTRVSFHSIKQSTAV
Also noted: Cerep Bioprint off-target panel, functional receptor agonism or antagonism. The protocol:
as §1

The target in assay [17] is T14, Muscarinic 2 (Homo sapiens, UniProt P08172).
T14 construct: gene CHRM2
T14 sequence (P08172 1-466): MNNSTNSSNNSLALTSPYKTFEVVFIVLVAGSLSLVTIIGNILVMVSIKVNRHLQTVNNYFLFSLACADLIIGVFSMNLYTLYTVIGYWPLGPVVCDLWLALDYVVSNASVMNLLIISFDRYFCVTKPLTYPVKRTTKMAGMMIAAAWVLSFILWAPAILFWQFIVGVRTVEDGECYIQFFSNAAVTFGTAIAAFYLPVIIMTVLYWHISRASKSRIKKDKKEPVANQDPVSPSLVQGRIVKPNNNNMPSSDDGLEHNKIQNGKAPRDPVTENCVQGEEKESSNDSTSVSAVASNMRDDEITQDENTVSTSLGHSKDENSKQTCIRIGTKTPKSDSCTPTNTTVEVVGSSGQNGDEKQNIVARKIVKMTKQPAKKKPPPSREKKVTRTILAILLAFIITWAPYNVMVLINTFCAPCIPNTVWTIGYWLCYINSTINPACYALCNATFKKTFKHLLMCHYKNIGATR
Also noted: Cerep Bioprint off-target panel, functional receptor agonism or antagonism. How it is done: as §1

In assay [18] the target is T15, Neurokinin Nk1 (Homo sapiens, UniProt P25103).
T15 construct: gene TACR1
Also noted: Cerep Bioprint off-target panel, functional receptor agonism or antagonism. Particulars: agonist. The protocol:
as §1

Assay [19] has as its target T16, Serotonin 5-HT4e (Homo sapiens, UniProt Q13639).
T16 construct: gene HTR4; isoform 4e
Also noted: Cerep Bioprint off-target panel, functional receptor agonism or antagonism. Conditions: agonist. The protocol:
as §1

Two molecules from publication PMC10412597, “Small molecule branched-chain ketoacid dehydrogenase kinase (BDK) inhibitors with opposing effects on BDK protein levels” (Nature Communications, 2023) can be followed below.

T12 sequence (P07550 whole entry): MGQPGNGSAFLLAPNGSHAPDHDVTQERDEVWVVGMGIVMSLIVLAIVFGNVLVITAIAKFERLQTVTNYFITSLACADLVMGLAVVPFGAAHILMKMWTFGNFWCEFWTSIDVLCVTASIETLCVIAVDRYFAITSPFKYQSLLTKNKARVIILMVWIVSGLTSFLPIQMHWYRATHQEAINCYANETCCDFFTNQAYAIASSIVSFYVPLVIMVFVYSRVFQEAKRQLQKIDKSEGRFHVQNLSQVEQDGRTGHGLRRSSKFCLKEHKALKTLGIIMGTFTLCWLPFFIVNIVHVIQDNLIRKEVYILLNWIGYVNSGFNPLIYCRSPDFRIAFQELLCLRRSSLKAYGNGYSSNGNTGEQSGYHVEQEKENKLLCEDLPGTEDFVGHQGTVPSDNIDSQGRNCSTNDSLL
T1 sequence (P00519 whole entry): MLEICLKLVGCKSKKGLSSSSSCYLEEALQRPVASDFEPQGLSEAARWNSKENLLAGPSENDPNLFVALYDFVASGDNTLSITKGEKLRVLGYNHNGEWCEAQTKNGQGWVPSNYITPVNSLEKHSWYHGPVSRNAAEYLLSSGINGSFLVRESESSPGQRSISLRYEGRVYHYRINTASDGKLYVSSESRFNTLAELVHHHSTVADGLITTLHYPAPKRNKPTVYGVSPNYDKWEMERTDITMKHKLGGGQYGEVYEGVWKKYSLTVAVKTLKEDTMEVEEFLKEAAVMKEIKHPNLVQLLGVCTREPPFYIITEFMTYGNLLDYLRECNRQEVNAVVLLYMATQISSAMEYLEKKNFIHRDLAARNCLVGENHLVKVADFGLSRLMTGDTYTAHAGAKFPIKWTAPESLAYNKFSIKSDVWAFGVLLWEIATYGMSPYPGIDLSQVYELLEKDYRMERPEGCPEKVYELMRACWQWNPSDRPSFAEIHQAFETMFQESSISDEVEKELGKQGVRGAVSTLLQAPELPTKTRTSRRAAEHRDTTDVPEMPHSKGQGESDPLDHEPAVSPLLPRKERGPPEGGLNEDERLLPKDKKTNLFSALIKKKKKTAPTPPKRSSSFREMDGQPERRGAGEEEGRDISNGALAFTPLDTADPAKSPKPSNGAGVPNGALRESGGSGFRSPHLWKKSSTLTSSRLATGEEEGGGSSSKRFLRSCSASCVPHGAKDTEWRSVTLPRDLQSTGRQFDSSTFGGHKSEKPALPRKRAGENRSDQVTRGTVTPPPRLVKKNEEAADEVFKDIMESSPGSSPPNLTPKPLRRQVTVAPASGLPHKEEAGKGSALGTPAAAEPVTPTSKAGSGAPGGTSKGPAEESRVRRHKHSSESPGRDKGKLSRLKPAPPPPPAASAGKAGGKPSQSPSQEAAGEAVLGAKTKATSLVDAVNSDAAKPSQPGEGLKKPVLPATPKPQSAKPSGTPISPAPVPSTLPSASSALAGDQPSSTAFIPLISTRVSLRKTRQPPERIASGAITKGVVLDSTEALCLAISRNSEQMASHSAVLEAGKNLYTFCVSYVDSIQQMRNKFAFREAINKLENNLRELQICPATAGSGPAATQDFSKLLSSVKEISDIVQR
T3 sequence (P12821 whole entry): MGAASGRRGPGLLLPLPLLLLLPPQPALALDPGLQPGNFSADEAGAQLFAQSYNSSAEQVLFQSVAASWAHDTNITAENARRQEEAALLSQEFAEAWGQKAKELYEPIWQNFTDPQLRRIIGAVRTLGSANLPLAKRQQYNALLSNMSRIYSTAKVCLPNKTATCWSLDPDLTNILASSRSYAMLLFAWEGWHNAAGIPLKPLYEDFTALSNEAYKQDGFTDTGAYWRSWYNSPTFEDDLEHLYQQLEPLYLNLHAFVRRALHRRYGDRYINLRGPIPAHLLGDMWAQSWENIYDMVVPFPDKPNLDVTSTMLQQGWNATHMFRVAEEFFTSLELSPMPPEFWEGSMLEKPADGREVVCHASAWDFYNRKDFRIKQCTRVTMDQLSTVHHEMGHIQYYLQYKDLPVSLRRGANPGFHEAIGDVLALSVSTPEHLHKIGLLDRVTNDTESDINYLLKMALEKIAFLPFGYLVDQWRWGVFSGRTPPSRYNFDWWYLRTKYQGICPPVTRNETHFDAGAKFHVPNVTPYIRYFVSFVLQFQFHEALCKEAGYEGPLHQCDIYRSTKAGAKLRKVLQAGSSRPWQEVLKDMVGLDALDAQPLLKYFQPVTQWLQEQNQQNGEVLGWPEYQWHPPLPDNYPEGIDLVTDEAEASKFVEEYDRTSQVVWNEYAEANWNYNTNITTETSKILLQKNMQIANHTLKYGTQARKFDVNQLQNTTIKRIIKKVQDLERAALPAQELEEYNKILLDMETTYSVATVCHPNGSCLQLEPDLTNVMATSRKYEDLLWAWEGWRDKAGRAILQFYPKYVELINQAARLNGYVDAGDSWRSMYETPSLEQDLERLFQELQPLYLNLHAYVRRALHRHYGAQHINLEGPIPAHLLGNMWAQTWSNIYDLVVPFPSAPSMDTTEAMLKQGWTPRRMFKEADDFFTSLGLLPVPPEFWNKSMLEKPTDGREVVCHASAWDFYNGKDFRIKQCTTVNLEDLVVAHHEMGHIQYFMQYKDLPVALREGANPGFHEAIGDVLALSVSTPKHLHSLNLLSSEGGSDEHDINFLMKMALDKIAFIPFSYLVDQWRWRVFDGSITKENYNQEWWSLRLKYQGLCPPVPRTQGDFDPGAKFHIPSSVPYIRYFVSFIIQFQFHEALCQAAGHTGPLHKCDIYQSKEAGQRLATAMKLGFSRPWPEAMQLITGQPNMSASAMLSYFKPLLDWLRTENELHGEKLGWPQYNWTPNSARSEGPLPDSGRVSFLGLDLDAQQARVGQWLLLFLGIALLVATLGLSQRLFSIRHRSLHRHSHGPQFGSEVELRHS
T11 sequence (P30542 whole entry): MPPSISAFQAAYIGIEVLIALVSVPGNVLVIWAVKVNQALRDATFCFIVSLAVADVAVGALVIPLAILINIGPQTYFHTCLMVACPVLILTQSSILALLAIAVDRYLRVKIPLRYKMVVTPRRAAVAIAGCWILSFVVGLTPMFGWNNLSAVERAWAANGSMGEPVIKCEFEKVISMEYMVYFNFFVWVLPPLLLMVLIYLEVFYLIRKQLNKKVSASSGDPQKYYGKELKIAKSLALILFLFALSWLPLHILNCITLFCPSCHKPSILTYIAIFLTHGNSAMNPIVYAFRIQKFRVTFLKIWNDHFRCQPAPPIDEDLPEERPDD
T10 sequence (Q08499 whole entry, canonical isoform): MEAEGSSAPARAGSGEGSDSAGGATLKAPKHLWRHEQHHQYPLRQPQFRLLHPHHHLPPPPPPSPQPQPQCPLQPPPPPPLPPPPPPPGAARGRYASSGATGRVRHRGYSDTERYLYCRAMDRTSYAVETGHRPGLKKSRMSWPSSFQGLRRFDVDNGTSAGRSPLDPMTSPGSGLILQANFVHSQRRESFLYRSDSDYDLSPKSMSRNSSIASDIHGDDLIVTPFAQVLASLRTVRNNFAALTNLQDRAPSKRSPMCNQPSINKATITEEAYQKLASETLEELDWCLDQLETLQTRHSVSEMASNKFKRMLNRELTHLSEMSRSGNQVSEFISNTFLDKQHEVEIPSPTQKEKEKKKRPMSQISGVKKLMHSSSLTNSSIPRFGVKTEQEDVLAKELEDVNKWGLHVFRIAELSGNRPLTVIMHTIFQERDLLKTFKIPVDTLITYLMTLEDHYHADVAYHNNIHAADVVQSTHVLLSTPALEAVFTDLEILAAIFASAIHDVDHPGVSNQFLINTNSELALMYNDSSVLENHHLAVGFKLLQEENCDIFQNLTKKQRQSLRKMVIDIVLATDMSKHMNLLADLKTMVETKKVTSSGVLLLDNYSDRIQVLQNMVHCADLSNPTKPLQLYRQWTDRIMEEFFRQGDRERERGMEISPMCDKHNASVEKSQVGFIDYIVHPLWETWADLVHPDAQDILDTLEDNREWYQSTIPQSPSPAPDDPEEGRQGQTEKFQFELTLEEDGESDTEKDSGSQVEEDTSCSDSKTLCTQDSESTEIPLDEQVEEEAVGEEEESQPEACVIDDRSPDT
T9 sequence (Q13370 whole entry): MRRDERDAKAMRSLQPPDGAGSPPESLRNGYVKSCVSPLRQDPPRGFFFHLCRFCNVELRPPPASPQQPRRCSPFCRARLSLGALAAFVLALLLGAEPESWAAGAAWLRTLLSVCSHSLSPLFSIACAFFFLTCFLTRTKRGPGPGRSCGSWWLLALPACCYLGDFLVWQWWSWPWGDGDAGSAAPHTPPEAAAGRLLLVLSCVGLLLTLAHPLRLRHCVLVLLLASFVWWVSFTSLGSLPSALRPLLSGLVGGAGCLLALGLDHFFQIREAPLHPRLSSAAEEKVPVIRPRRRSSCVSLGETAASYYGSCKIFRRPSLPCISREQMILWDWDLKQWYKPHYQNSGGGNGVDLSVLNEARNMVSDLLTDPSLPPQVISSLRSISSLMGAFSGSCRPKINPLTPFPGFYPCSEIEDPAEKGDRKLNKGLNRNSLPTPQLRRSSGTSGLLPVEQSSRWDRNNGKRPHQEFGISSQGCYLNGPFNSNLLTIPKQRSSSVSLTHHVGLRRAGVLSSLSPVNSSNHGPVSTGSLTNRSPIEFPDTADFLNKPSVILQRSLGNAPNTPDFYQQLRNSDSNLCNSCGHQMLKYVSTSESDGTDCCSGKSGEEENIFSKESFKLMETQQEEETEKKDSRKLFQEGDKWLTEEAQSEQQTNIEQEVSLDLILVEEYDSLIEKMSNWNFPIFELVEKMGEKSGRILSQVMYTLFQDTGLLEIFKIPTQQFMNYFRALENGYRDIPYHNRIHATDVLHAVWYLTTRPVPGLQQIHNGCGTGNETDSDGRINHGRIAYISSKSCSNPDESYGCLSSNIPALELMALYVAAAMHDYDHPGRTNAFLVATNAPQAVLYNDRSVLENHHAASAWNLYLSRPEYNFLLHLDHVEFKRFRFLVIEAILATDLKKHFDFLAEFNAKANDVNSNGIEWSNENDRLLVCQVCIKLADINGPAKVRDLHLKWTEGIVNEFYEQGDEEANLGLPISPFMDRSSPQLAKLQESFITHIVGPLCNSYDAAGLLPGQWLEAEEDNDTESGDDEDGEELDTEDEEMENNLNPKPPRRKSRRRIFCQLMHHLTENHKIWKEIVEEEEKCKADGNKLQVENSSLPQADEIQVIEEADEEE

Consider `O=C(O)c1sc2cc(F)sc2c1Cl` [PF-07208254, 3-chloro-5-fluorothieno[3,2-b]thiophene-2-carboxylic acid], for which the “% Inhibition PF-07208254” value is listed as 42% in assay [1] (100 µM); -4% in [2] (100 µM); -4% in [3] (100 µM); 15% in assay [4] (100 µM); 0% in assay [5] (100 µM); 19% in [6] (100 µM). Besides, the “% Inhibition PF-07208254” value in [7] (100 µM) is recorded as 57%; in [8] (100 µM), -4%; in [9] (100 µM), 0%; in [10] (100 µM), 35%; in assay [11] (100 µM), -9%; in [12] (100 µM), -11%. Besides, the “% Inhibition PF-07208254” value in [13] (100 µM) is 11%. For the same molecule, the “% (agonism) PF-07208254” value is 0% in assay [14] (100 µM); -5% in assay [15] (100 µM, agonist); -2% in [16] (100 µM, agonist); 39% in [17] (100 µM, agonist); -3% in [18] (100 µM); 6% in assay [19] (100 µM). The “% Inhibition (antagonism) PF-07208254” value in assay [15] (100 µM, antagonist) is reported as 10%; in assay [16] (100 µM, antagonist) it was 39%; in assay [17] (100 µM, antagonist), -7%.

As for `CCC1(COc2ccc(-c3csc(-c4ccccc4C(=O)O)n3)cn2)CC1` [PF-07247685, 2-(4-{6-[(1-ethylcyclopropyl)methoxy]pyridin-3-yl}-1,3-thiazol-2-yl)benzoic acid], the “% Inhibition PF-07247685” value in assay [1] (10 µM) is recorded as 11%; in assay [2] (10 µM), -4%; in assay [3] (10 µM) it was -31%; in assay [4] (10 µM), -7%; in assay [5] (10 µM), 4%; in [6] (10 µM), -6%. In addition, the “% Inhibition PF-07247685” value in [7] (10 µM) is -11%; in assay [8] (10 µM), -2%; in [9] (10 µM), 12%; in assay [10] (10 µM), 3%; in [11] (10 µM), -16%; in assay [12] (10 µM), -24%. Moreover, in assay [13] (10 µM), the “% Inhibition PF-07247685” value is recorded as -8%. Further, the “% (agonism) PF-07247685” value in assay [14] (10 µM) is given as 0%; in assay [15] (10 µM, agonist), -6%; in assay [16] (10 µM, agonist), 4%; in [17] (10 µM, agonist) it was 3%; in assay [18] (10 µM), -4%; in [19] (10 µM), 0%. In addition, the “% Inhibition (antagonism) PF-07247685” value in [15] (10 µM, antagonist) is given as 3%; in [16] (10 µM, antagonist) it was 11%; in [17] (10 µM, antagonist), 2%.
